Assay results reported in US12493040B2, “Cancer detection method using sense of smell of nematode” (HIROTSU BIO SCIENCE INC., priority 2013, dated 2025).

System: RNAi-treated eri-1 (mg366) nematodes
Experiment: RNAi screening of olfactory receptor genes: chemotaxis assay of RNAi-treated nematodes to odorants
Assay type: in vivo, Caenorhabditis elegans
Details: repellent or high concentration of attractant
Protocol: The RNAi assay was carried out by performing an RNAi method involving the feeding (feeding RNAi method) of eri-1 (mg366) (19), using an Ahringer library (37).
Nine adult eri-1 mutants were placed on an NGM plate containing isopropyl 1-D-1-thiogalactopyranoside (0.19 g/L), ampicillin (60 mg/L), and Escherichia coli (E. coli), and were then cultured for 4 days. Subsequently, the adult worms were used in a chemotaxis assay. The chemotaxis assay was carried out as previously reported (6, 17). In the chemotaxis assay, the present inventor has used 30 to 50 worms in each experiment in which 1 μl of 10^−3- or 10^−4-diluted odorant (low concentration), or 1 and 5 μl of undiluted odorants (high concentration) were used.
The z score and a control value in each single test from 2SD were calculated in all days (Table 3) or every day. The z score was used as a threshold indicating a great difference (−1.96 and 1.96, P<0.05). […] Accordingly, the present inventor has used the z score±1 (−0.96 and 0.96, P<0.33) as a weaker threshold.

In the case of `O=Cc1ccccc1` [High Bz], the chemotaxis index (Control nematodes) is reported as −0.91 ± 0.007, the chemotaxis index (srh-4 RNAi-treated nematodes) is reported as −0.75 and the chemotaxis index (srh-7 RNAi-treated nematodes) is reported as −1.00. For the same compound, the chemotaxis index (srh-8 RNAi-treated nematodes) was −0.93, the chemotaxis index (srh-10 RNAi-treated nematodes) was −0.95 and the chemotaxis index (srh-11 RNAi-treated nematodes) was −0.78. The chemotaxis index (srh-15 RNAi-treated nematodes) was −0.41, the chemotaxis index (srh-16 RNAi-treated nematodes) was −0.88 and the chemotaxis index (srh-18 RNAi-treated nematodes) was −0.88. The chemotaxis index (srh-19 RNAi-treated nematodes) was −1.00, the chemotaxis index (srh-22 RNAi-treated nematodes) was −0.80 and the chemotaxis index (srh-23 RNAi-treated nematodes) was −0.88. For the same compound, the chemotaxis index (srh-24 RNAi-treated nematodes) was −1.00, the chemotaxis index (srh-25 RNAi-treated nematodes) was −0.73 and the chemotaxis index (srh-27 RNAi-treated nematodes) was 0.96. The chemotaxis index (srh-28 RNAi-treated nematodes) was −0.75, the chemotaxis index (srh-36 RNAi-treated nematodes) was −0.95 and the chemotaxis index (srh-37 RNAi-treated nematodes) was −1.00. For the same compound, the chemotaxis index (srh-39 RNAi-treated nematodes) was −0.84, the chemotaxis index (srh-40 RNAi-treated nematodes) was −0.87 and the chemotaxis index (srh-41 RNAi-treated nematodes) was −0.89. The chemotaxis index (srh-44 RNAi-treated nematodes) was −0.48, the chemotaxis index (srh-45 RNAi-treated nematodes) was −0.96 and the chemotaxis index (srh-46 RNAi-treated nematodes) was −0.82. For the same compound, the chemotaxis index (srh-48 RNAi-treated nematodes) was −0.80, the chemotaxis index (srh-49 RNAi-treated nematodes) was −0.76 and the chemotaxis index (srh-50 RNAi-treated nematodes) was −1.00. The chemotaxis index (srh-51 RNAi-treated nematodes) was −0.96, the chemotaxis index (srh-52 RNAi-treated nematodes) was −1.00 and the chemotaxis index (srh-55 RNAi-treated nematodes) was −0.98. For the same compound, the chemotaxis index (srh-59 RNAi-treated nematodes) was −0.91, the chemotaxis index (srh-60 RNAi-treated nematodes) was −0.98 and the chemotaxis index (srh-61 RNAi-treated nematodes) was −0.92. For the same compound, the chemotaxis index (srh-67 RNAi-treated nematodes) was −0.97, the chemotaxis index (srh-68 RNAi-treated nematodes) was −0.87 and the chemotaxis index (srh-69 RNAi-treated nematodes) was −0.87. It also gave a chemotaxis index (srh-70 RNAi-treated nematodes) of −0.94, a chemotaxis index (srh-71 RNAi-treated nematodes) of −0.91 and a chemotaxis index (srh-72 RNAi-treated nematodes) of −0.98. For the same compound, the chemotaxis index (srh-74 RNAi-treated nematodes) was −0.95, the chemotaxis index (srh-75 RNAi-treated nematodes) was −0.94 and the chemotaxis index (srh-77 RNAi-treated nematodes) was −0.89. For the same compound, the chemotaxis index (srh-79 RNAi-treated nematodes) was −0.80, the chemotaxis index (srh-80 RNAi-treated nematodes) was −0.87 and the chemotaxis index (srh-82 RNAi-treated nematodes) was −0.88. The chemotaxis index (srh-83 RNAi-treated nematodes) was −0.45, the chemotaxis index (srh-97 RNAi-treated nematodes) was −0.86 and the chemotaxis index (srh-99 RNAi-treated nematodes) was −0.74. For the same compound, the chemotaxis index (srh-100 RNAi-treated nematodes) was −0.94, the chemotaxis index (srh-104 RNAi-treated nematodes) was −0.91 and the chemotaxis index (srh-105 RNAi-treated nematodes) was −0.96. For the same compound, the chemotaxis index (srh-109 RNAi-treated nematodes) was −0.87 and the chemotaxis index (srh-111 RNAi-treated nematodes) was −0.79.
In the case of `CC(C)CCO` [High Iaa], the chemotaxis index (Control nematodes) is reported as −0.84 ± 0.011, the chemotaxis index (srh-4 RNAi-treated nematodes) is reported as −0.73 and the chemotaxis index (srh-7 RNAi-treated nematodes) is reported as −0.86. For the same compound, the chemotaxis index (srh-8 RNAi-treated nematodes) was −0.94, the chemotaxis index (srh-10 RNAi-treated nematodes) was −0.96 and the chemotaxis index (srh-11 RNAi-treated nematodes) was −0.79. The chemotaxis index (srh-15 RNAi-treated nematodes) was −0.60, the chemotaxis index (srh-16 RNAi-treated nematodes) was −0.74 and the chemotaxis index (srh-18 RNAi-treated nematodes) was −0.78. The chemotaxis index (srh-19 RNAi-treated nematodes) was −0.89, the chemotaxis index (srh-22 RNAi-treated nematodes) was −0.81 and the chemotaxis index (srh-23 RNAi-treated nematodes) was −0.88. For the same compound, the chemotaxis index (srh-24 RNAi-treated nematodes) was −1.00, the chemotaxis index (srh-25 RNAi-treated nematodes) was 0.13 and the chemotaxis index (srh-27 RNAi-treated nematodes) was −0.92. The chemotaxis index (srh-28 RNAi-treated nematodes) was −0.64, the chemotaxis index (srh-36 RNAi-treated nematodes) was −0.59 and the chemotaxis index (srh-37 RNAi-treated nematodes) was −0.69. It also gave a chemotaxis index (srh-39 RNAi-treated nematodes) of −0.79, a chemotaxis index (srh-40 RNAi-treated nematodes) of −0.88 and a chemotaxis index (srh-41 RNAi-treated nematodes) of −0.56. It also gave a chemotaxis index (srh-44 RNAi-treated nematodes) of 0.00, a chemotaxis index (srh-45 RNAi-treated nematodes) of −0.97 and a chemotaxis index (srh-46 RNAi-treated nematodes) of −0.91. The chemotaxis index (srh-48 RNAi-treated nematodes) was −0.67, the chemotaxis index (srh-49 RNAi-treated nematodes) was −0.59 and the chemotaxis index (srh-50 RNAi-treated nematodes) was −0.93. For the same compound, the chemotaxis index (srh-51 RNAi-treated nematodes) was −0.85, the chemotaxis index (srh-52 RNAi-treated nematodes) was −0.96 and the chemotaxis index (srh-55 RNAi-treated nematodes) was −0.95. It also gave a chemotaxis index (srh-59 RNAi-treated nematodes) of −0.87, a chemotaxis index (srh-60 RNAi-treated nematodes) of −0.77 and a chemotaxis index (srh-61 RNAi-treated nematodes) of −0.82. It also gave a chemotaxis index (srh-67 RNAi-treated nematodes) of −0.96, a chemotaxis index (srh-68 RNAi-treated nematodes) of −0.67 and a chemotaxis index (srh-69 RNAi-treated nematodes) of −0.94. For the same compound, the chemotaxis index (srh-70 RNAi-treated nematodes) was −0.40, the chemotaxis index (srh-71 RNAi-treated nematodes) was −0.76 and the chemotaxis index (srh-72 RNAi-treated nematodes) was −0.55. The chemotaxis index (srh-74 RNAi-treated nematodes) was −0.51, the chemotaxis index (srh-75 RNAi-treated nematodes) was −0.50 and the chemotaxis index (srh-77 RNAi-treated nematodes) was −0.68. The chemotaxis index (srh-79 RNAi-treated nematodes) was −0.22, the chemotaxis index (srh-80 RNAi-treated nematodes) was −0.31 and the chemotaxis index (srh-82 RNAi-treated nematodes) was −0.53. The chemotaxis index (srh-83 RNAi-treated nematodes) was 0.34, the chemotaxis index (srh-97 RNAi-treated nematodes) was −0.51 and the chemotaxis index (srh-99 RNAi-treated nematodes) was −0.33. For the same compound, the chemotaxis index (srh-100 RNAi-treated nematodes) was −0.64, the chemotaxis index (srh-104 RNAi-treated nematodes) was −0.48 and the chemotaxis index (srh-105 RNAi-treated nematodes) was −0.76. It also gave a chemotaxis index (srh-109 RNAi-treated nematodes) of −0.68 and a chemotaxis index (srh-111 RNAi-treated nematodes) of −0.08.
